The source of these data is US8835428B2, “Diacylglycerol acyltransferase inhibitors” (Piramal Enterprises Limited, priority 2008, dated 2014).

This experiment addresses T1, hDGAT1 (Homo sapiens, UniProt O75907).
T1 construct: host or cells: Sf9 insect cells (baculovirus); microsomal preparation
T1 sequence (O75907 1-488): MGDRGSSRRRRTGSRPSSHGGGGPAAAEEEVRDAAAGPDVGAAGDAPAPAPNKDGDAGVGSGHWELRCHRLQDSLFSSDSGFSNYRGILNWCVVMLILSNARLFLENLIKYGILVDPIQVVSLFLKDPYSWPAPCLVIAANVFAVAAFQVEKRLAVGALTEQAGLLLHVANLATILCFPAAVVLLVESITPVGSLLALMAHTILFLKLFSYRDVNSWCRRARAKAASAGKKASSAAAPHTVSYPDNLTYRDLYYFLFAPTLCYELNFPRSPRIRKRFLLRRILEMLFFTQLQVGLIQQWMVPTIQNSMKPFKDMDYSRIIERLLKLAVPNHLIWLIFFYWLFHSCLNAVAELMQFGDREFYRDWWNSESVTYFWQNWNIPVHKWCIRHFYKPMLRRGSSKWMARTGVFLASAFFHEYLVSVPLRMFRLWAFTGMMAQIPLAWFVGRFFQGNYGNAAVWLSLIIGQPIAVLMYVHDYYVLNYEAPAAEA
Kind of experiment: In-vitro DGAT1 assay (hDGAT1 microsomes from Sf9 cells, 14C oleoyl CoA, triglyceride formation). The format is biochemical. A digest of the protocol:
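Compounds tested in duplicate at 10, 5 and 1 μM for 10 min at 37 °C. Reaction: Sf9-expressed hDGAT1 microsomes (2.5–10 μg), [14C]oleoyl-CoA plus 409.5–1638 μM dioleoylglycerol, pH 7.4 Tris-HCl with fatty-acid-free BSA. Radiolabelled triglyceride extracted into heptane and scintillation-counted.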

Molecules are shown by their SMILES.

A word on the inhibition: it is the share of the control response that was lost under treatment. Low values mean little suppression, high ones strong suppression. In the case of `CC(C)C[C@H](NC(=NO)c1cc(-c2ccc(Nc3nc4ccc(F)cc4s3)cc2)no1)C(=O)O` [Example 51, (S)-2-({3-[4-(6-Fluoro-benzothiazol-2-ylamino)-phenyl]-N-hydroxy-isoxazole-5-carboximidoyl}-amino)-4-methyl-pentanoic acid], the inhibition at 10 µM was 0 to 50%.

In the case of `CC(C)[C@H](NC(=O)c1csc(-c2ccc(NC(=O)Nc3ccc(F)c(F)c3)cc2)n1)C(=O)O` [Example 371, (S)-2-(2-(4-(3-(3,4-Difluorophenyl)ureido)phenyl)thiazole-4-carboxamido)-3-methylbutanoic acid], the inhibition at 1 µM fell in the range of 0 to 50%.

`COC(=O)C(NC(=O)c1cc(-c2ccc(NC(=O)Nc3ccccn3)cc2)no1)C(C)C` (centres unmarked) [Example 279, Methyl 3-methyl-2-(3-(4-(3-pyridin-2-ylureido)phenyl)isoxazole-5-carboxamido)butanoate] registered an inhibition at 5 µM of 0 to 50%.

`CC(C)C(NC(=O)c1cc(-c2ccc(NC(=O)C(=O)Nc3cccc(C(F)(F)F)c3)cc2)no1)C(=O)O` (centres unmarked) [Example 337, 3-Methyl-2-(3-(4-(2-oxo-2-(3-(trifluoromethyl)phenylamino)acetamido)phenyl)isoxazole-5-carboxamido)butanoic acid] had an inhibition at 1 µM of 0 to 50%.

Compound `COC(=O)[C@H](NC(=O)c1cc(-c2ccc(NS(=O)(=O)c3ccc(C(F)(F)F)cc3)cc2)no1)C(C)C` [Example 318, (R)-methyl 3-methyl-2-(3-(4-(4-(trifluoromethyl)phenylsulfonamido)phenyl)isoxazole-5-carboxamido)butanoate] came in with an inhibition at 1 µM of 0 to 50%.

For the compound `Cc1ccc(NC(=O)Nc2ccc(-c3cc(C(=O)NCCCC(=O)O)on3)cc2)cc1` [Example 256, 4-(3-(4-(3-p-Tolylureido)phenyl)isoxazole-5-carboxamido)butanoic acid], the inhibition at 5 µM lay in the range of 50 to 75%.

Compound `CC(C)[C@H](NC(=O)c1cc(-c2ccc(NC(=O)Nc3ccccc3Oc3ccccc3)cc2)no1)C(=O)O` [Example 238, (S)-3-Methyl-2-(3-(4-(3-(2-phenoxyphenyl)ureido)phenyl)isoxazole-5-carboxamido)butanoic acid] registered an inhibition at 1 µM of 75 to 100%.

The compound `COc1ccccc1NC(=O)Nc1ccc(-c2cc(C(=O)N[C@H](C(=O)O)C(C)C)on2)cc1` [Example 185, (S)-2-(3-(4-(3-(2-methoxyphenyl)ureido)phenyl)isoxazole-5-carboxamido)-3-methylbutanoic acid] showed an inhibition at 1 µM of 75 to 100%.

`O=C(Nc1ccc(-c2cc(C(=O)NC(Cc3ccccc3)C(=O)O)on2)cc1)Nc1ccccc1F` (centres unmarked) [Example 242, 2-(3-(4-(3-(2-Fluorophenyl)ureido)phenyl)isoxazole-5-carboxamido)-3-phenylpropanoic acid] gave an inhibition at 5 µM of 50 to 75%.

Take `O=C(NC1(C(=O)O)CCCC1)c1cc(-c2ccc(Nc3nc4ccc(F)cc4s3)cc2)no1` [Example 63, 1-({3-[4-(6-Fluoro-benzothiazol-2-ylamino)-phenyl]-isoxazole-5-carbonyl}-amino)-cyclopentanecarboxylic acid]: the inhibition at 10 µM lay in the range of 0 to 50%.

Take `COC(=O)[C@@H](NC(=O)c1cc(-c2ccc(NC(=S)Nc3cccc(F)c3)cc2)no1)C(C)C` [Example 267, (S)-methyl 2-(3-(4-(3-(3-fluorophenyl)thioureido)phenyl)isoxazole-5-carboxamido)-3-methylbutanoate]: the inhibition at 5 µM lay within 0 to 50%.

Regarding `COC(=O)[C@H](CC(C)C)NC(=O)c1cc(-c2ccc(NC(=O)NC3CCCCC3)cc2)no1` [Example 82, (S)-2-({3-[4-(3-cyclohexyl-ureido)-phenyl]-isoxazole-5-carbonyl}-amino)-4-methyl-pentanoic acid methyl ester], the inhibition at 10 µM was in the range of 0 to 50%.

Turning to `CC(C)C(NC(=O)c1cc(-c2ccc(NC(=O)C(=O)Nc3ccc(F)cc3F)cc2)no1)C(=O)O` (centres unmarked) [Example 339, 2-(3-(4-(2-(2,4-difluorophenylamino)-2-oxoacetamido)phenyl)isoxazole-5-carboxamido)-3-methylbutanoic acid], the inhibition at 1 µM was in the range of 0 to 50%.

On to `CC(C)[C@@H](C(=O)O)N(C)C(=O)c1cc(-c2ccc(NC(=O)Nc3ccccc3Cl)cc2)no1` [Example 314, (S)-2-(3-(4-(3-(2-chlorophenyl)ureido)phenyl)-N-methylisoxazole-5-carboxamido)-3-methylbutanoic acid], for which the inhibition at 1 µM fell in the range of 50 to 75%.

`CC(C)C(NC(=O)c1cc(-c2ccc(Oc3nc4ccc(F)cc4s3)cc2)no1)C(=O)O` (centres unmarked) [Example 335, 2-(3-(4-(6-fluorobenzo[d]thiazol-2-yloxy)phenyl)isoxazole-5-carboxamido)-3-methylbutanoic acid] gave an inhibition at 1 µM of 0 to 50%.

In turn, `CC(C)[C@H](NC(=O)c1cc(-c2ccc(NC(=S)Nc3cccc(F)c3)cc2)no1)C(=O)O` [Example 268, (S)-2-(3-(4-(3-(3-fluorophenyl)thioureido)phenyl)isoxazole-5-carboxamido)-3-methylbutanoic acid] displayed an inhibition at 5 µM of 50 to 75%.

`COC(=O)[C@@H](NC(=O)c1nc(-c2ccc(NS(=O)(=O)c3ccc(F)cc3F)cc2)no1)C(C)C` [Example 350, (S)-methyl 2-(3-(4-(2,4-difluorophenylsulfonamido)phenyl)-1,2,4-oxadiazole-5-carboxamido)-3-methylbutanoate] yielded an inhibition at 5 µM of 0 to 50%.

Compound `Cc1cc(NC(=O)Nc2ccc(F)cc2)ccc1-c1cc(C(=O)NC(C(=O)O)C(C)C)on1` (centres unmarked) [Example 134, 2-(3-(4-(3-(4-fluorophenyl)ureido)-2-methylphenyl)isoxazole-5-carboxamido)-3-methylbutanoic acid] returned an inhibition at 10 µM of 75 to 100%.

As to `CC(C)[C@H](NC(=O)c1csc(-c2ccc(NC(=O)Nc3ccc(Cl)cc3Oc3ccccc3)cc2)n1)C(=O)O` [Example 365, (S)-2-(2-(4-(3-(4-chloro-2-phenoxyphenyl)ureido)phenyl)thiazole-4-carboxamido)-3-methylbutanoic acid], the inhibition at 1 µM lay in the range of 50 to 75%.

On to `CC(C)[C@H](NC(=O)c1cc(-c2ccc(NC(=O)Nc3ccc(Cl)cc3Oc3ccccc3)cc2)no1)C(=O)O` [Example 201, (S)-2-(3-(4-(3-(4-Chloro-2-phenoxyphenyl)ureido)phenyl)isoxazole-5-carboxamido)-3-methylbutanoic acid], for which the inhibition at 1 µM lay in the range of 75 to 100%.

`O=C(O)[C@@H]1CCCN1C(=O)c1cc(-c2ccc(Nc3nc4ccc(F)cc4s3)cc2)no1` [Example 19, (S)-1-{3-[4-(6-Fluoro-benzothiazol-2-ylamino)-phenyl]-isoxazole-5-carbonyl}-pyrrolidine-2-carboxylic acid] had an inhibition at 10 µM of 50 to 75%.

Consider `Cc1cc(OC(F)(F)F)ccc1NC(=O)Nc1ccc(-c2cc(C(=O)NC(C(=O)O)C(C)C)on2)cc1` (centres unmarked) [Example 295, 3-methyl-2-(3-(4-(3-(2-methyl-4-(trifluoromethoxy)phenyl)ureido)phenyl)isoxazole-5-carboxamido)butanoic acid], for which the inhibition at 1 µM lay within 75 to 100%.

On to `CC(C)[C@H](NC(=O)c1csc(-c2ccc(NC(=O)Nc3ccc4c(c3)CCC4)cc2)n1)C(=O)O` [Example 361, (S)-2-(2-(4-(3-(2,3-dihydro-1H-inden-5-yl)ureido)phenyl)thiazole-4-carboxamido)-3-methylbutanoic acid], for which the inhibition at 1 µM fell in the range of 0 to 50%.
